What was measured:
[1] = molecular target: T1, M6PR (Homo sapiens, UniProt P11717); experiment: M6P competition of IDUA-myc uptake in hCMEC/D3 cells; assay type: cell-based; settings: 1 h exposure to IDUA-myc conditioned medium (~20,000 U/mL), read-out: Median inhibitory concentration (IC50) of IDUA-myc uptake
T1 construct: endogenous in cells; host or cells: HUVEC (parental, or transduced with LV-143Spg / control LV)

[2] = molecular target: T1, M6PR; experiment: M6P competition of IDUA-myc uptake in HUVEC; assay type: cell-based

T1 sequence (P11717 41-2491): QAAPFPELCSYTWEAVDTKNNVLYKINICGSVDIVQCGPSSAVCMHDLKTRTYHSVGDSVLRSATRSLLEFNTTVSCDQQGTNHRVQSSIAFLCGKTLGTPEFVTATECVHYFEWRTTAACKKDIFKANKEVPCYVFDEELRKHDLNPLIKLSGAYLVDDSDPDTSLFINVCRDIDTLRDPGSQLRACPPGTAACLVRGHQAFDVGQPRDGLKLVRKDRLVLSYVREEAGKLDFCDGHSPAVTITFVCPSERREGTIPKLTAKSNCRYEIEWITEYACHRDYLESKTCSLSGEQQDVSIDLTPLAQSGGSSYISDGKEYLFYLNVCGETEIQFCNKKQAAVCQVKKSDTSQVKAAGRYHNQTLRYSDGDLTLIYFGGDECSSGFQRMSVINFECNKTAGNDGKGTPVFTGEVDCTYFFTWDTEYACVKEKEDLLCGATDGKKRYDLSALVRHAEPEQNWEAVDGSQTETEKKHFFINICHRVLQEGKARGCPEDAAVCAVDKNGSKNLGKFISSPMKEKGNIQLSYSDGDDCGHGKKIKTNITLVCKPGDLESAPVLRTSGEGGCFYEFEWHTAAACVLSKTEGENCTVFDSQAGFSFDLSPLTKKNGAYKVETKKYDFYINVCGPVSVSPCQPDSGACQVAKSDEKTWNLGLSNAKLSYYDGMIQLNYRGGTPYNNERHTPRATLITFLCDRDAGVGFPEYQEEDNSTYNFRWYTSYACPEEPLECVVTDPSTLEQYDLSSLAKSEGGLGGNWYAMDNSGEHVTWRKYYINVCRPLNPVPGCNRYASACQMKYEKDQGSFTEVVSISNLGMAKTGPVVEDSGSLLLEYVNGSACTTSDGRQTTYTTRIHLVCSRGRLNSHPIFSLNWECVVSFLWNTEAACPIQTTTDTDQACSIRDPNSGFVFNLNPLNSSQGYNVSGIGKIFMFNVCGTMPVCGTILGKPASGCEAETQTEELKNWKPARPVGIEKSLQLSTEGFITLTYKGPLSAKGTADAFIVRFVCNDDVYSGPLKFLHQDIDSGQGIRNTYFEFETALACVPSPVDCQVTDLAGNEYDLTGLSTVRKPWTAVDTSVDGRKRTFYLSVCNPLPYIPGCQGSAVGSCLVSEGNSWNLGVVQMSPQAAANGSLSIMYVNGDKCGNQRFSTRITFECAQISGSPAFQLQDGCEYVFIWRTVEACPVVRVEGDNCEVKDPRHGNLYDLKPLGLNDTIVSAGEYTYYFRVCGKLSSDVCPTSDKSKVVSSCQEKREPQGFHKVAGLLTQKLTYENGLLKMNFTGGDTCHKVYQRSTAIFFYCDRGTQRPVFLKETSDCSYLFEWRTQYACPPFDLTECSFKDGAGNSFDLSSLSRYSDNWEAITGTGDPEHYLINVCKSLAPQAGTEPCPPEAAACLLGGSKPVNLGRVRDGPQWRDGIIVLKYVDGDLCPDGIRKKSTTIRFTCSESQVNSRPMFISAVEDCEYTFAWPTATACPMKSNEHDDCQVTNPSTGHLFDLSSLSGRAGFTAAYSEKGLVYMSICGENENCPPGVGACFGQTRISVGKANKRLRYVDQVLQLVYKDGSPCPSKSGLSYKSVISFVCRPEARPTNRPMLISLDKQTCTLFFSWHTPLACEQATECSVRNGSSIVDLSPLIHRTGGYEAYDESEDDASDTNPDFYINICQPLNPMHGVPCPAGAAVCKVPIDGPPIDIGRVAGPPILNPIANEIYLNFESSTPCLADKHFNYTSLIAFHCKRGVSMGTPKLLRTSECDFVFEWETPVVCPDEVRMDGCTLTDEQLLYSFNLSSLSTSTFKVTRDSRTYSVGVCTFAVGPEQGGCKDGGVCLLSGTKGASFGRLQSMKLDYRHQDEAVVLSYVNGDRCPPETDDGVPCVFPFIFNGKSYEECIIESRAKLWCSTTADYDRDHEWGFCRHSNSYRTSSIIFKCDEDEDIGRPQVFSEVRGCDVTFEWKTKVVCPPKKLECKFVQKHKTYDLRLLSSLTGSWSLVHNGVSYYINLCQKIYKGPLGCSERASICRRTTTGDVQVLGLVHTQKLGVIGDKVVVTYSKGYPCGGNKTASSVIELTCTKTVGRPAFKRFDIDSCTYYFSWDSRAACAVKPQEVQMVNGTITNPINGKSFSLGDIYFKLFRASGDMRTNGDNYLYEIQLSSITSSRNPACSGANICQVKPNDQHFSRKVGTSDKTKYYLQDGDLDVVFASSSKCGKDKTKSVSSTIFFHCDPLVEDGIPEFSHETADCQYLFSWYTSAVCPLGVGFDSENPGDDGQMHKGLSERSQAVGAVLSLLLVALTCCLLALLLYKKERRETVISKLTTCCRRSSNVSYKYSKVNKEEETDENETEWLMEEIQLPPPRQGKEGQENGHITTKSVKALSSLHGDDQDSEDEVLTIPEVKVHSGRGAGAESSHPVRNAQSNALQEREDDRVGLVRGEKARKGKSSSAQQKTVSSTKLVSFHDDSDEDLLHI

With `O=C[C@@H](O)[C@@H](O)[C@H](O)[C@H](O)COP(=O)(O)O` [M6P inhibitor, mannose 6-phosphate] the IC50 [1] was 57.2 µM, the IC50 ([2]; 1 h exposure to IDUA-myc conditioned medium (~20,000 U/mL), read-out: Median inhibitory concentration (IC50) of IDUA-myc uptake) was 347 µM and the “M6PR-independent uptake (plateau)” value ([2]; residual uptake under M6P competition) was ~18%.

Reference: patent US11845935B2, “Regulation of MIR-143 using nucleic acid molecules” (CHILDREN'S HOSPITAL MEDICAL CENTER, priority 2017, dated 2023)
